Data from publication PMC5632533, “Mechanisms of action and in vivo antibacterial efficacy assessment of five novel hybrid peptides derived from Indolicidin and Ranalexin against Streptococcus pneumoniae” (PeerJ, 2017).

Tests used:
[1] = test system: ICR (CD-1) mice; experiment: In vivo toxicity in mice (SC, IN, IP routes); design: Aspartate aminotransferase, AST / Alanine transaminase, ALT / Alkaline phosphatase, ALP / Creatinine / Urea / Total bilirubin: unit not given here; details: for Eosinophil / Erythrocytes, RBC / Granulocytes / Hematocrit, HCT / Hemoglobin Hgb / Lymphocytes / Mean corpuscular haemoglobin concentration, MCHC / Mean corpuscular haemoglobin, MCH / Monocytes / White blood cells, WBC / platelet Counts, PLT / Mean corpuscular volume, MCV / Alanine transaminase, ALT / Alkaline phosphatase, ALP / Aspartate aminotransferase, AST / Creatinine / Total bilirubin / Urea: 3 doses (1hr, 12hr, 24hr), RN7-IN9, RN7-IN6 10 mg/kg, day 7, mean±SD, 4 mice; for Alanine transaminase, ALT / Alkaline phosphatase, ALP / Aspartate aminotransferase, AST / Creatinine / Total bilirubin / Urea: serum
Experimental: In this study, 4-week old male, pathogen free ICR (CD-1) mice were purchased from InVivos (Lim Chu Kang, Singapore) and used to assess the in vivo toxicity and antibacterial efficacy of the novel peptides, as these animals are by far the most commonly used model for the study of pneumococcal disease ([Chiavolini, Pozzi & Ricci, 2008]). The mice were kept in ventilated polycarbonate cages (12 h light/dark cycle, 20 ± 2 °C and 55% relative humidity). All mice were familiarized for seven days before any experimental procedure and were given unlimited pellets and water ad libitum. All animal experimentations were conducted according to the guidelines approved by Faculty of Medicine Institutional Animal Care and Use Committee (FOM IACUC), University of Malaya (ethics Reference no. : 2013-07-15/MMBTR/SDS).
In order to evaluate the possible toxic effects correlated to peptides administered in mice, four hybrid peptides RN7-IN10, RN7-IN9, RN7-IN8 and RN7-IN6 were chosen for in vivo toxicity assessment, due to their promising in vitro antibacterial activity ([Jindal et al., 2015]). Mice were separated into four groups (each with four mice) and were injected with respective peptides at 1 h, 12 h, and 24 h (three-dose regimen) via IP, SC, and IN administration routes. The hybrid peptides were first administered at high doses (100 mg/kg for IP route, 100 mg/kg for SC routes and 20 mg/kg for IN route). Any abnormal behavior was recorded and survival of mice was noted as well. In case adverse effects such as high physical stress, severe lethargy, physical inactiveness, and/or death were detected, lower graded doses were given. All the administered mice were monitored for seven days or until death occurred. At day seven post administration, all animals were sacrificed and blood and organs were collected. Untreated mice were used as a control group.
Mice used to evaluate the in vivo toxicity and antibacterial activity of the hybrid peptides using the subcutaneous (SC) and intranasal (IN) administration routes, were anesthetized using a combination of a standard dose of xylazine (ilium xylazil-20, 10 mg/kg) and ketamine (Narketan®-10, 100 mg/kg) through intraperitoneal (IP) injection. After seven days of treatment, the in vivo toxicity and antibacterial efficacy experiments were ended and the surviving mice were anesthetized. Blood samples for Hematological and biochemical analysis were collected via cardiac puncture using a 25G syringe (BD bioscience, San Jose, CA, USA). Whole blood for heamatological analysis was collected in 500 µl dipotassium EDTA microtainer tubes (BD Bioscience, USA). About 500 µl of blood collected an eppedorff tube and centrifuged at 8000 rpm for 5 min and then the serum was transferred into a new 1.5 ml tube for biochemistry analysis. The mice were then euthanized by cervical dislocation, dissected and the following organs were collected for histopathology evaluation: lung, kidney, brain, liver and spleen.
For whole blood analysis, the parameters were number of red cells (RBC), number of white cells (WBC), lymphocytes, monocytes, eosinophil, granulocytes, haemoglobin (Hgb), mean corpuscular volume (MCV), hematocrit (HCT), platelet Counts (PLT), Mean corpuscular haemoglobin (MCH) and corpuscular haemoglobin concentration (MCHC). For biochemistry analysis, the parameters were alanine transaminase (ALT), creatinine, alkaline phosphatase (ALP), aspartate aminotransferase (AST), total bilirubin and urea.
The following organs were collected from all the dissected mice: lung, kidney, brain, spleen, and liver. All tissues were fixed in 10% (v/v) buffered formalin and processed for paraffin embedding. Hematoxylin–eosin (HE) was used to stain the histological sections at the histopathology laboratory, Veterinary Laboratory Service Unit, University Putra Malaysia (UPM).

[2] = test system: Streptococcus pneumoniae; details: 30 pneumococcal clinical isolates; earlier study; ref Jindal et al., 2015; cited from earlier work
[3] = IN, head doses: RN7-IN10, RN7-IN8 20 mg/kg
[4] = SC, head doses: RN7-IN10, RN7-IN8 20 mg/kg

In the case of “FLGGLIKKWPWWPWRR-NH2 [RN7-IN9, hybrid peptide of ranalexin (residues 1-7) and indolicidin (residues 5-13)]”, the Eosinophil [1, 3] is reported as 3.2±1.2%, the “Erythrocytes, RBC” value [1, 3] is reported as 9.36±0.9 10^6/mm^3 and the Granulocytes [1, 3] is reported as 56.2±10.81%. For the same substance, the “Hematocrit, HCT” value [1, 3] was 46.82±4.23%, the “Hemoglobin Hgb” value [1, 3] was 14.9 ± 1.32 g/dL and the Lymphocytes [1, 3] was 41.27±10.56%. The “Mean corpuscular haemoglobin concentration, MCHC” value [1, 3] was 31.85 ± 0.17 g/dL, the “Mean corpuscular haemoglobin, MCH” value [1, 3] was 15.95 ± 0.33 pg and the Monocytes [1, 3] was 2.52±0.27%. The “White blood cells, WBC” value [1, 3] was 5.2±2.35 10^3/mm^3, the “platelet Counts, PLT” value [1, 3] was 656.75±76.9 10^3/mm^3 and the Eosinophil ([1]; IP, RN7-IN10, RN7-IN8 20 mg/kg) was 3.95±2.56%. The “Erythrocytes, RBC” value ([1]; IP, RN7-IN10, RN7-IN8 20 mg/kg) was 8.06±1.04 10^6/mm^3, the Granulocytes ([1]; IP, RN7-IN10, RN7-IN8 20 mg/kg) was 53.02±4.07% and the “Hematocrit, HCT” value ([1]; IP, RN7-IN10, RN7-IN8 20 mg/kg) was 41.42±5.25%. For the same substance, the “Hemoglobin Hgb” value ([1]; IP, RN7-IN10, RN7-IN8 20 mg/kg) was 13.9 ± 1.67 g/dL, the “Mean corpuscular haemoglobin concentration, MCHC” value ([1]; IP, RN7-IN10, RN7-IN8 20 mg/kg) was 33.63 ± 0.34 g/dL and the “Mean corpuscular haemoglobin, MCH” value ([1]; IP, RN7-IN10, RN7-IN8 20 mg/kg) was 17.25 ± 0.78 pg. The “Mean corpuscular volume, MCV” value ([1]; IP, RN7-IN10, RN7-IN8 20 mg/kg) was 51.5±2.64 µm^3, the Monocytes ([1]; IP, RN7-IN10, RN7-IN8 20 mg/kg) was 2.47±0.25% and the “White blood cells, WBC” value ([1]; IP, RN7-IN10, RN7-IN8 20 mg/kg) was 3.7±1.54 10^3/mm^3. The “platelet Counts, PLT” value ([1]; IP, RN7-IN10, RN7-IN8 20 mg/kg) was 674±118.72 10^3/mm^3, the “maximum IP dose at which no signs of stress or abnormal behavior were evident (non-toxic dose)” value ([1]; IP, doses at 1 h, 12 h, 24 h, no death up to seven days) was 10 mg/kg and the Eosinophil [1, 4] was 2.77±0.54%. The “Erythrocytes, RBC” value [1, 4] was 9.22±0.98 10^6/mm^3, the Granulocytes [1, 4] was 55.55±4.52% and the “Hematocrit, HCT” value [1, 4] was 46.15±5.19%. The “Hemoglobin Hgb” value [1, 4] was 15.75 ± 1.4 g/dL, the Lymphocytes [1, 4] was 46.47±5.48% and the “Mean corpuscular haemoglobin concentration, MCHC” value [1, 4] was 34.2 ± 1.37 g/dL. The “Mean corpuscular haemoglobin, MCH” value [1, 4] was 17.1 ± 0.53 pg, the “Mean corpuscular volume, MCV” value [1, 4] was 51±1.82 µm^3 and the Monocytes [1, 4] was 1.95±0.1%. The “White blood cells, WBC” value [1, 4] was 4.32±0.55 10^3/mm^3, the “platelet Counts, PLT” value [1, 4] was 449.75±100.23 10^3/mm^3 and the “Alanine transaminase, ALT” value [1, 3] was 41.22±15.75. The “Alkaline phosphatase, ALP” value [1, 3] was 127.75±6.07, the “Aspartate aminotransferase, AST” value [1, 3] was 141.2±23.08 and the Creatinine [1, 3] was 37.66±1.26. The Total bilirubin [1, 3] was 2.01±0.27, the Urea [1, 3] was 9.6±1.02 and the “Alanine transaminase, ALT” value ([1]; IP, RN7-IN10, RN7-IN8 20 mg/kg) was 51.54±5.83. For the same substance, the “Aspartate aminotransferase, AST” value ([1]; IP, RN7-IN10, RN7-IN8 20 mg/kg) was 172.33±26.35, the Creatinine ([1]; IP, RN7-IN10, RN7-IN8 20 mg/kg) was 37.3±3.51 and the Total bilirubin ([1]; IP, RN7-IN10, RN7-IN8 20 mg/kg) was 1.9±0.02. For the same substance, the Urea ([1]; IP, RN7-IN10, RN7-IN8 20 mg/kg) was 10.56±5.2, the “Alanine transaminase, ALT” value [1, 4] was 43.17±13.81 and the “Alkaline phosphatase, ALP” value [1, 4] was 131.25±19.7. For the same substance, the “Aspartate aminotransferase, AST” value [1, 4] was 188.33±11.22, the Creatinine [1, 4] was 35±1.27 and the Total bilirubin [1, 4] was 2.2±0.13. The Urea [1, 4] was 8.84±1.04 and the “MIC, minimum inhibitory concentration” value [2] was 7.81 to 15.62 µg/mL.
